Source: publication PMC12035805, “A Water-Soluble Aggregation-Induced Emission Photosensitizer with Intrinsic Antibacterial Activity as an Antiplanktonic and Antibiofilm Therapeutic Agent” (Journal of Medicinal Chemistry, 2025)
Like-named read-outs stand apart in the source and are kept apart here.

Assays:
[1] = system: P. aeruginosa (ATCC 27853); assay: MIC assay (broth microdilution, CLSI), without light; assay type: cell-based; conditions: Pseudomonas aeruginosa, ATCC27853, light or radiation study
Method: (§1) The MIC assays of TPA-1 were conducted according to the broth microdilution methods described in the Clinical and Laboratory Standards Institute (CLSI) standard. A single colony of S. aureus (ATCC 29213), methicillin-resistant S. aureus (BAA 41), or P. aeruginosa (ATCC 27853) on an LB agar plate was picked and suspended in Mueller–Hinton Broth (MHB). The bacterial culture was grown overnight at 37 °C. The next day, the bacteria culture was diluted 100 times in fresh MHB and grown to the mid log phase. Bacteria in the mid log phase were further diluted to 5 × 10^6 CFU/mL in cation-adjusted MHB (S. aureus) or MHB (P. aeruginosa). Ten μL of the diluted bacteria were added to a 96-well plate containing 90 μL of serial diluted TPA-1 in the corresponding medium. The plate was incubated overnight at 37 °C. The MICs of the TPA compounds were the concentrations at which no apparent bacteria were observed by the naked eye. Different concentrations of LTA were also added to examine the change in MIC values of TPA-1 against S. aureus. The experiments were conducted in triplicate.

[2] = system: methicillin-resistant S. aureus (BAA 41); assay: as above; assay type: cell-based; conditions: Staphylococcus aureus
Method: as §1

S. aureus (ATCC 29213) = assay: as above; assay type: cell-based; conditions: Staphylococcus aureus, ATCC29213, light or radiation study; read-out: MIC against ATCC 29213 Staphylococcus aureus without light irradiation
Method: as §1

S. aureus [3] = assay: Resistance development assay on S. aureus; assay type: cell-based, Staphylococcus aureus
Method: The MICs for TPA-1 and norfloxacin against S. aureus were first determined by the above-mentioned method. The wells with 0.5 × MIC of compounds were transferred to 1 mL fresh MHB and incubated under darkness for 3–4 h at 37 °C. The bacteria were then used to conduct a MIC assay again. The experiments were repeated for 20 days. The fold changes in the MIC values of the compounds were recorded. The experiments were performed in duplicate.

[4] = Light toxicity on HFF-1 cells (MTT after PDT); assay type: cell-based; conditions: human, 600 nm light irradiation for 45 min
Method: HFF-1 cells were seeded in a 96-well plate with a density of 10,000 cells/well for 12 h at 37 °C in darkness. Different concentrations of TPA-1 were added to the cell culture medium and incubated for 20 min at 37 °C in darkness. The cells were then incubated in the dark or irradiated by 600 nm light for 45 min. The cell viability was then evaluated using the MTT assay, which was described in the cytotoxicity assay.

[5] = system: S. aureus biofilm formation; assay: S. aureus biofilm inhibition assay in the dark (crystal violet); assay type: cell-based; conditions: Staphylococcus aureus, light or radiation study, without light irradiation
Method: For biofilm inhibition assay, overnight culture of S. aureus in TSB was diluted to 1 × 10^7 CFU/mL in TSB (with 1% glucose). Ten μL of the diluted bacteria were added to a 96-well plate containing 90 μL of serial diluted TPA-1 in TSB (with 1% glucose). After overnight incubation at 37 °C in darkness, the medium in the well was removed. The remaining biofilm was washed with 200 μL of PBS (3 times) and fixed with 100 μL of methanol for 10 min. The well was left for drying. Then, 150 μL of 0.1% crystal violet was added to the wells and stained for 10 min. The crystal violet was removed, and the wells were washed with 200 μL of PBS (3 times). After drying, the remaining crystal violet was dissolved in 100 μL of 95% ethanol with gentle shaking, and the absorbance at 570 nm was recorded. The biofilm inhibition % was calculated as [1 – (ODTPA-1 – ODblank)/(ODmedium – ODblank)] × 100% where ODTPA-1, ODmedium and ODblank were the absorbances of the wells with bacteria treated TPA-1, with bacteria without treatment and with medium only, respectively. The experiment was performed in triplicate.

planktonic S. aureus = assay: Photodynamic eradication of planktonic bacteria; assay type: cell-based, Staphylococcus aureus; conditions: 2 μM, 600 nm (60 mW/cm^2)
Method: For planktonic bacteria, an overnight culture of S. aureus or P. aeruginosa was diluted 100 times in TSB and grown to OD = 1. The bacteria cultures were then diluted to […] in PBS. TPA-1 (2 μM) was added to the diluted cultures and incubated under darkness for 20 min at 30 °C. Bacterial cultures of 200 μL were transferred to the wells of a 96-well plate. The plate was irradiated by 600 nm light (60 mW/cm^2) for 30 and 45 min. Then, the bacterial cultures were serially diluted, and the number of viable bacteria was counted using the plate counting method.

S. aureus [6] = assay: Time-kill kinetics against S. aureus; assay type: cell-based, Staphylococcus aureus; conditions: 2 × MIC (6.25 μM), dark
Method: Similar to the MIC assay, the overnight culture of S. aureus incubated under darkness was diluted in fresh MHB and grown to the mid log phase. The S. aureus was then diluted to 1 × 10^6 CFU/mL in cation-adjusted MHB. Three mL of diluted S. aureus was transferred into a 15 mL culture tube. 2 × MIC and 4 × MIC of TPA-1 was added into the bacterial culture and incubated under darkness for 24 h. 2 × MIC of vancomycin and PBS were taken as the positive and negative controls, respectively. At time 0, 0.5, 1, 2, 4, 6, 8, and 24 h, 20 μL of the bacteria culture was taken out. The bacteria were serially diluted, and the number of viable bacteria was recorded using the plate counting method. The experiment was performed in triplicate.

With C#CCC[n+]1c(/C=C/c2ccc(-c3ccc(N(c4ccc(OCCC[N+](C)(C)C)cc4)c4ccc(OCCC[N+](C)(C)C)cc4)cc3)s2)sc2ccccc21.[Br-].[Br-].[Br-] [TPA-1] the MIC ([1]; read-out: MIC against ATCC 27853 Pseudomonas aeruginosa without light irradiation) was 100 µM, the MIC ([1]; without light irradiation, read-out: MIC against P. aeruginosa (ATCC 27853)) was over 100 µM and the MIC ([2]; ATCC BAA-41 / BAA-41, light or radiation study, read-out: MIC against ATCC BAA41 Methicillin-resistant Staphylococcus aureus without light irradiation) was 3.12 µM. For the same molecule, the MIC ([2]; BAA41, light or radiation study, read-out: MIC against methicillin-resistant S. aureus (BAA 41)) was 3.12 µM, the MIC (S. aureus (ATCC 29213)) was 3.12 µM and the “increase of MIC against S. aureus after treatment for 20 days” value (S. aureus [3]; 20 days of passages at 0.5 × MIC) was 2 fold. It also gave an MIC (S. aureus [3]; Staphylococcus aureus, read-out: initial MIC against S. aureus in resistance development assay) of 3.12 µM, a viability at 45 min, 40 µM [4] of over 90% and an inhibition at 3.125 µM ([5]; 1 × MIC (3.125 μM)) of over 90%. The inhibition at 6.25 µM ([5]; ≥ 6.25 μM) was over 99.9%, the “planktonic S. aureus eradicated” value (planktonic S. aureus; 30 min) was 99.2% ± 0.7% and the “planktonic S. aureus log CFU/mL reduction” value (planktonic S. aureus; 30 min) was 2.2 ± 0.4 log CFU/mL. For the same molecule, the “planktonic S. aureus eradicated” value (planktonic S. aureus; 45 min) was over 99.99%, the “planktonic S. aureus log CFU/mL reduction” value (planktonic S. aureus; 45 min) was over 5 log CFU/mL and the “time to completely eradicate S. aureus” value (S. aureus [6]) was at most 2 h.
